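A five-concentration, 48-hour dose response in 96-well plates underlies each endpoint, interpolated linearly between surrounding concentrations. Abbreviation: GI50, concentration required for 50% inhibition of growth. TGI: total growth inhibition.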
Experiments:
Experiment in all cases: DTP human tumour cell line panel, 48 h
[1] = test system: BT-549 breast
[2] = test system: LOX IMVI melanoma
[3] = test system: TK-10 renal
[4] = test system: A498 renal
[5] = test system: HL-60(TB) leukemia
[6] = test system: IGROV1 ovarian
[7] = test system: A549 NSCLC
[8] = test system: SNB-19 CNS
[9] = test system: MDA-MB-435
[10] = test system: COLO 205 colon

CCN1C(=O)N(CC)C2C1NN=c1s/c(=C\c3cccnc3)c(=O)n12 (stereo not drawn)
GI50 [1]: 1.04 µM
TGI [1]: 19.9 µM
GI50 [2]: 0.543 µM
TGI [2]: > 100 µM
GI50 [3]: > 100 µM
TGI [3]: > 100 µM
GI50 [4]: 224 nM
TGI [4]: 1.01 µM
GI50 [5]: 0.395 µM
GI50 [6]: 843 nM
TGI [6]: > 100 µM
GI50 [7]: 0.733 µM
TGI [7]: > 100 µM
GI50 [8]: 0.676 µM
TGI [8]: > 100 µM
GI50 [9]: 0.154 µM
TGI [9]: 0.527 µM
GI50 [10]: 392 nM
TGI [10]: > 53.3 µM

O=C(c1ccc(F)cc1)c1cccc(C(=O)c2ccc(F)cc2)n1
TGI [1]: 18.5 µM
TGI [2]: > 100 µM
TGI [3]: 69.3 µM
TGI [4]: > 100 µM
TGI [5]: > 100 µM
TGI [6]: 79.3 µM
TGI [7]: > 100 µM
TGI [8]: 54 µM
TGI [9]: > 100 µM
TGI [10]: > 100 µM

COc1cc(Cl)cc(-c2nn(C(=O)NCCN3CCOCC3)cc2-c2ccncc2)c1
GI50 [1]: 3.87 µM
TGI [1]: 35.2 µM
GI50 [2]: 5.14 µM
TGI [2]: 69.9 µM
GI50 [3]: 8.46 µM
TGI [3]: > 100 µM
GI50 [4]: 3100 nM
TGI [4]: 35.2 µM
GI50 [5]: 3.22 µM
TGI [5]: 95.1 µM
GI50 [6]: 4980 nM
TGI [6]: > 100 µM
GI50 [7]: 9.97 µM
TGI [7]: > 100 µM
GI50 [8]: 7.58 µM
TGI [8]: > 100 µM
GI50 [9]: 0.604 µM
TGI [9]: 3.61 µM
GI50 [10]: 3160 nM
TGI [10]: 11.2 µM

CC1SC(c2c(Cl)cccc2Cl)N(NC(=O)c2[nH]c3ccc(F)cc3c2-c2ccccc2)C1=O (stereo not drawn)
GI50 [1]: 5.04 µM
TGI [1]: 28.5 µM
GI50 [2]: 1.71 µM
TGI [2]: 3.35 µM
GI50 [3]: 2.56 µM
TGI [3]: 7.12 µM
GI50 [4]: 2330 nM
TGI [4]: 9.46 µM
GI50 [5]: 67.5 µM
TGI [5]: > 100 µM
GI50 [6]: 2370 nM
TGI [6]: 7.9 µM
GI50 [7]: 1.68 µM
TGI [7]: 3.16 µM
GI50 [8]: 2.17 µM
TGI [8]: 5.82 µM
GI50 [9]: 5.01 µM
TGI [9]: > 100 µM
GI50 [10]: 2690 nM
TGI [10]: 7.48 µM

O=C1OC(=O)C(c2c[nH]c3ccccc23)=C1c1c[nH]c2ccccc12
GI50 [1]: > 25 µM
TGI [1]: > 25 µM
GI50 [2]: > 25 µM
TGI [2]: > 25 µM
GI50 [3]: > 25 µM
TGI [3]: > 25 µM
GI50 [4]: > 25000 nM
TGI [4]: > 25 µM
GI50 [5]: > 25 µM
TGI [5]: > 25 µM
GI50 [6]: > 25000 nM
TGI [6]: > 25 µM
GI50 [7]: > 25 µM
TGI [7]: > 25 µM
GI50 [8]: > 25 µM
TGI [8]: > 25 µM
GI50 [9]: > 25 µM
TGI [9]: > 25 µM
GI50 [10]: > 25000 nM
TGI [10]: > 25 µM

COc1cccc(/C=C/C(=O)c2cccc(Nc3nc(Nc4ccccc4)nc(Nc4ccccc4)n3)c2)c1
GI50 [1]: 21.7 µM
TGI [1]: > 72.1 µM
GI50 [2]: 7.04 µM
TGI [2]: 21.3 µM
GI50 [3]: 41.5 µM
TGI [3]: > 93.1 µM
GI50 [4]: 6040 nM
TGI [4]: 17.7 µM
GI50 [5]: 10.5 µM
TGI [5]: 43.6 µM
GI50 [6]: 5470 nM
TGI [6]: 33.2 µM
GI50 [7]: 30.9 µM
TGI [7]: > 100 µM
GI50 [8]: > 56.9 µM
TGI [8]: > 100 µM
GI50 [9]: 14.5 µM
TGI [9]: > 59.7 µM
GI50 [10]: 10500 nM
TGI [10]: 42.3 µM

C[C@H](Nc1ncnc2nc[nH]c12)c1cc2cccc(Cl)c2c(=O)n1-c1ccccc1
GI50 [1]: 1.57 µM
TGI [1]: > 83.1 µM
GI50 [2]: 19.8 µM
TGI [2]: > 100 µM
GI50 [3]: 2.8 µM
TGI [3]: 45.5 µM
GI50 [4]: 49.1 nM
TGI [4]: 0.446 µM
GI50 [5]: 3.37 µM
TGI [5]: 99.5 µM
GI50 [6]: 1580 nM
TGI [6]: 7.51 µM
GI50 [7]: 24.2 µM
TGI [7]: > 100 µM
GI50 [8]: 17.7 µM
TGI [8]: > 100 µM
GI50 [9]: 19.4 µM
TGI [9]: > 100 µM
GI50 [10]: 19700 nM
TGI [10]: > 100 µM

Cc1occc1C(=S)Nc1ccc(Cl)c(COC(C)(C)C)c1
TGI [1]: 33.6 µM
TGI [2]: 34 µM
TGI [3]: 34.8 µM
TGI [4]: 32.3 µM
TGI [5]: 45 µM
TGI [6]: 31 µM
TGI [7]: 41.8 µM
TGI [8]: 48.2 µM
TGI [9]: 30.7 µM
TGI [10]: 30.6 µM

CCN(CC)CCn1ccc(=O)c2cc3c(=O)ccn(CCN(CC)CC)c3c(C)c21
TGI [1]: 29.2 µM
TGI [2]: 7.55 µM
TGI [3]: 26.7 µM
TGI [4]: 29.2 µM
TGI [5]: 3.54 µM
TGI [6]: 22 µM
TGI [7]: 14.1 µM
TGI [8]: 18.3 µM
TGI [9]: 16.7 µM
TGI [10]: 15.3 µM

COC(=O)[C@]12CC[C@@H](C)[C@H](C)[C@@H]1C1=CC[C@@H]3[C@@]4(C)C[C@@H](OC(C)=O)[C@H](O)[C@@](C)(COC(C)=O)[C@@H]4[C@H](O)C[C@@]3(C)[C@]1(C)CC2
GI50 [1]: 2.18 µM
TGI [1]: 5.71 µM
GI50 [2]: 1.64 µM
TGI [2]: 3.1 µM
GI50 [3]: 2.68 µM
TGI [3]: 8.97 µM
GI50 [4]: 2040 nM
TGI [4]: 7.4 µM
GI50 [5]: 2.11 µM
TGI [5]: 5.42 µM
GI50 [6]: 1870 nM
TGI [6]: 4.81 µM
GI50 [7]: 2.21 µM
TGI [7]: 8.34 µM
GI50 [8]: 2.78 µM
GI50 [9]: 2.95 µM
TGI [9]: 10.7 µM
GI50 [10]: 1630 nM
TGI [10]: 3.2 µM

CCN(CC)c1ccc(C(=C2C=CC(=[N+](CC)Cc3cccc(S(=O)(=O)O)c3)C=C2)c2ccc(N(CC)Cc3cccc(S(=O)(=O)O)c3)cc2)cc1
GI50 [1]: 5.45 µM
TGI [1]: > 91.7 µM
GI50 [2]: 4.84 µM
TGI [2]: > 100 µM
GI50 [3]: 18.8 µM
TGI [3]: > 100 µM
GI50 [4]: 5350 nM
TGI [4]: 32.4 µM
GI50 [5]: 4.38 µM
TGI [5]: 17.4 µM
GI50 [6]: 13300 nM
TGI [6]: > 100 µM
GI50 [7]: 4.28 µM
TGI [7]: > 100 µM
GI50 [8]: 14.2 µM
TGI [8]: > 100 µM
GI50 [9]: 4.07 µM
TGI [9]: > 100 µM
GI50 [10]: 1870 nM
TGI [10]: 3.83 µM

Cc1ccc2c(ccc3c[n+]4c5ccccc5ccc4n32)c1
GI50 [1]: 0.434 µM
TGI [1]: 2.41 µM
GI50 [2]: 1.32 µM
TGI [2]: 3.25 µM
GI50 [3]: 4.11 µM
TGI [3]: 25.1 µM
GI50 [4]: 437 nM
TGI [4]: 5.78 µM
GI50 [5]: 2.5 µM
TGI [5]: 10.2 µM
GI50 [6]: 1520 nM
TGI [6]: 18.6 µM
GI50 [7]: 0.663 µM
TGI [7]: 13.7 µM
GI50 [8]: 0.494 µM
TGI [8]: 3.38 µM
GI50 [9]: 1.13 µM
TGI [9]: 2.55 µM
GI50 [10]: 485 nM
TGI [10]: 2.35 µM

CCN(CC)S(=O)(=O)c1ccc(OC)c(Nc2ncc(-c3ccccc3)o2)c1
GI50 [1]: > 18.4 µM
TGI [1]: > 25 µM
GI50 [2]: > 22.6 µM
TGI [2]: > 25 µM
GI50 [3]: > 17.4 µM
TGI [3]: > 25 µM
GI50 [4]: 1240 nM
TGI [4]: > 15.5 µM
GI50 [5]: > 15 µM
TGI [5]: > 25 µM
GI50 [6]: > 25000 nM
TGI [6]: > 25 µM
GI50 [7]: 24.9 µM
TGI [7]: > 25 µM
GI50 [8]: > 19.2 µM
TGI [8]: > 25 µM
GI50 [9]: > 25 µM
TGI [9]: > 25 µM
GI50 [10]: > 25000 nM
TGI [10]: > 25 µM

From PubChem BioAssay (NCI)
